According to the METLIN SMRT retention time set (Domingo-Almenara et al. 2019):

Assay: gradient 5% acetonitrile 3 min, to 50% in 2 min, to 85% in 15 min, held 3 min, 100 µL/min
Conditions: column: Zorbax Extend-C18 2.1 x 50 mm; eluents: water / acetonitrile, 0.1% formic acid
How it was run: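 A Zorbax Extend-C18 column (2.1 × 50 mm, 1.8 μm) run at 100 μL/min with water and acetonitrile, both containing 0.1% formic acid, separated mixtures of ~100 pure standards. The HPLC was coupled to a quadrupole time-of-flight mass spectrometer operated in positive and negative ionization mode, with dead and dwell volumes of 40 μL and 900 μL. Each retention time was taken from a computationally picked adduct peak that was then manually inspected.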

| Structure (SMILES) | RP-LC retention time [s] |
| --- | --- |
| O=C(NCc1cscn1)C1CCN(S(=O)(=O)c2cccc(Cl)c2)CC1 | 747 |
| CCN1CCN(c2ncnc3c2cnn3-c2ccccc2Cl)CC1 | 582 |
| COCc1noc([C@@H]2CC(F)(F)CN2C(=O)c2conc2C)n1 | 679 |
| CCN1CCN(c2ccc(-c3ccc(C)c(S(=O)(=O)N4CCOCC4)c3)nn2)CC1 | 612 |
| Cn1cc2c(N3CCSCC3)nc(C(=O)N3CCN(C4CCCC4)CC3)nc2n1 | 579 |
| COc1ccc(NC(=O)N2C[C@H]3C[C@H](C2)[C@H]2CCCC(=O)N2C3)cc1OC | 612 |
| CCn1cc(C(=O)NCc2ccccc2)c(S(=O)(=O)N2CCSCC2)n1 | 880 |
| Cc1ccccc1-c1cn(CC(=O)NCc2ccc(F)c(Cl)c2)nc1N1CCOCC1 | 920 |
| Cc1c(-c2noc(C3CCCCC3)n2)nnn1-c1ccccc1 | 1160 |
| O=C(Cc1cccs1)N1CCC(Nc2ncnc3c2CCC3)CC1 | 590 |
| O=C(CC1CCCCN1S(=O)(=O)c1ccccc1)NCCc1c[nH]c2ccccc12 (stereo unspecified) | 794 |
| Cc1ccc(NS(=O)(=O)c2ccc3c(c2)CCCC(=O)N3)cc1Cl | 806 |
| CC(C)N1CC2(CCN(S(=O)(=O)c3ccccc3)CC2)C1c1ccccc1 (stereo unspecified) | 690 |
| CCCCN1CCN(C(=O)CN2CCN(Cc3ccccc3)C2=O)CC1 | 589 |
| O=C(NCc1csc(C2CCCN(C(=O)c3c(F)cccc3F)C2)n1)C1CCC1 (stereo unspecified) | 742 |
| Cc1oc(-c2[nH]ncc2C(=O)N(C)C)cc1S(=O)(=O)Nc1ccc(Cl)cc1F | 714 |

| Structure (SMILES) | RP-LC retention time [s] |
| --- | --- |
| Cc1ccccc1-c1noc(C2CCCN2C(=O)Nc2ccccc2Cl)n1 (stereo unspecified) | 606 |
| CCc1cc(-c2csc(S(=O)(=O)N3CCN(Cc4ccc5c(c4)OCO5)CC3)c2)on1 | 753 |
| O=C1NC2(CCN(C(=O)Nc3ccc(F)cc3)CC2)N=C1c1cccc(Cl)c1 | 872 |
| CS(=O)(=O)NC1CCN(C(=O)C2CCCC2)C1 (stereo unspecified) | 691 |
| Cn1ncc(NC(=O)c2ccccc2F)c(N2CCOCC2)c1=O | 777 |
| COc1ccc(S(=O)(=O)N2CCN(c3cc(C)nc(N4CCCCC4)n3)CC2)cc1Cl | 768 |
| CN(NC(=O)CC(=O)NN(C)C(=S)c1ccccc1)C(=S)c1ccccc1 | 862 |
| Cc1ccc(S(=O)(=O)N2CCCC(CCC(=O)N3CCOCC3)C2)cc1 (stereo unspecified) | 814 |
| O=C(c1ccc2ccccc2n1)N1CCOc2ccc(N3CCOCC3)cc2C1 | 784 |
| Cc1noc(C)c1CC(=O)N1CCC2(CC1)C(=O)N(C)c1ccccc12 | 720 |
| O=C1c2ccccc2C(=O)N1CCSc1nnc2sc3ccccc3n12 | 696 |
| O=C(N[C@H]1C[C@@H]2C[C@H]1CN2C(=O)c1ccc2c(c1)OCO2)c1cccs1 | 871 |
| O=C(CSCC(=O)Nc1nc2ccccc2s1)Nc1nc(-c2cccs2)cs1 | 854 |
| O=C(Nc1ccc(N2CCCCS2(=O)=O)cc1)OCc1ccccc1 | 769 |
| c1ccc(-n2nnnc2SCCNCc2ccc3c(c2)OCCO3)cc1 | 634 |

Results, then the compound that gave them:

| RP-LC retention time [s] | Structure (SMILES) |
| --- | --- |
| 572 | CCC(C)NC(=O)Cn1nc(Cc2ccncc2)c2ccccc2c1=O (stereo unspecified) |
| 717 | COc1ccc(NC(=O)C2CC(=O)N(c3n[nH]c4cccc(F)c34)C2)cc1 (stereo unspecified) |
| 818 | CCc1ccc(C(=O)Nc2ccc3c(c2)Sc2ncccc2C(=O)N3C)cc1 |
| 821 | CCOc1ccc(-c2[nH]nc3nc(-c4cccc(OC)c4)cc(C(=O)O)c23)cc1 |
| 736 | CCN1CCn2cc(S(=O)(=O)Nc3cccc(C)c3)cc2C1=O |
| 636 | CC(C)Cn1c(=O)c(N2CCN(S(=O)(=O)c3cccc(F)c3)CC2)nc2ccncc21 |
| 812 | CC1(C)N=C(N)N=C(N)N1c1ccc(OCCCOc2ccccc2)c(Cl)c1 |
| 891 | O=C1CC(c2ccc(F)cc2)Cc2c1cnn2-c1nc2ccccc2[nH]1 (stereo unspecified) |
| 864 | Cc1nc(-c2ccc(N3CCN(C(=O)c4n[nH]c5ccccc45)CC3)nc2)sc1C |
| 1090 | COc1ccc(-n2ncc3c(=O)n(Cc4nc(-c5ccc(C(F)(F)F)cc5)no4)cnc32)cc1 |
| 1280 | CCOc1ccccc1NS(=O)(=O)c1ccccc1-c1nc(-c2cccc(F)c2)no1 |
| 856 | CN1C(=O)COc2ccc(-c3csc(NC(=O)C(C)(C)C)n3)cc21 |
| 711 | COc1ccc(CNC(=O)N2CCN(Cc3nc4ccc(Cl)cc4o3)CC2)cc1 |
| 905 | CC(C)c1ccc(NC(=O)Cn2nc(N3CCOCC3)c3ccccc3c2=O)cc1 |
| 845 | COc1ccc(-c2ccnc3nc(C(C)C)nn23)cc1 |
| 989 | CC(C)n1cc(S(=O)(=O)Nc2cc(F)ccc2Cl)c2cccnc21 |
| 675 | COc1ccc(N2CCN(c3ncc4c(n3)CCN(Cc3ccc(C)cc3)C4)CC2)cc1 |
| 862 | Cn1cnc(-c2cc3nccc(Oc4ccc(NC(=S)NC(=O)Cc5ccccc5)cc4F)c3s2)c1 |

| RP-LC retention time [s] | Structure (SMILES) |
| --- | --- |
| 765 | CCC1CCCCN1Cc1nc(Cn2ccn3nc(-c4ccc(C)c(C)c4)cc3c2=O)no1 (stereo unspecified) |
| 588 | Cc1ccc(-c2[nH]ncc2CN2CCC3(CC2)CC(O)CCO3)cc1 (stereo unspecified) |
| 800 | COc1ccccc1NC(=O)N1CCCC1c1cc(C)on1 (stereo unspecified) |
| 1140 | O=C(O)Cc1sc(-c2ccccc2)nc1-c1ccc(Cl)cc1 |
| 802 | O=C(NC1CCCCC1)c1ccc(Nc2c(-c3ccccc3)nc3cnccn23)cc1 |
| 641 | O=C(NCc1csc(-c2ccccc2)n1)C1CCCN(c2ccc(-c3ccco3)nn2)C1 (stereo unspecified) |
| 951 | Cc1ccc(NC(=O)N2CCN(c3nc4cccnc4n(C)c3=O)CC2)cc1Cl |
| 726 | CCCCN(CCNc1ncnc2onc(-c3ccccc3OC)c12)Cc1ccco1 |
| 673 | CCc1noc(-c2cccnc2N2CCCN(Cc3cc(F)cc(F)c3)CC2)n1 |
| 981 | COc1ccc(Cl)cc1NC(=O)Nc1ccc2c(c1)N(C)C(=O)C(C)(C)CO2 |
| 603 | COc1ccc(CN(C)Cc2cc(=O)c3cc(C)ccc3[nH]2)cc1 |
| 588 | CCN(CC)C(=O)c1ccc2c(c1)N(Cc1ccc(C)cc1)C(=O)CO2 |
| 1050 | O=C(COc1ccccc1)Nc1nc(-c2ccccc2)cs1 |
| 731 | COc1ccc(-c2nnc(-c3ccc(C)c(S(N)(=O)=O)c3)o2)cc1OC |
| 702 | COc1ccc(OC)c(S(=O)(=O)NC2CCCN(c3ccc(=O)n(C)n3)C2)c1 (stereo unspecified) |
| 556 | CN(C)CCNC(=O)c1cccc2[nH]c(-c3ccncc3)nc12 |
| 661 | CCOc1ncccc1CNS(=O)(=O)c1cccnc1 |
